Results from US6916802B2, “Amino ceramide-like compounds and therapeutic methods of use” (Genzyme Corporation, priority 2002, dated 2005).
Several values for one entry are separate records, joined by “and”; a condition that tells them apart may be missing. Equal values may be shown once. Marks after values point to notes of the source that are not given here. Values belong to the compound of their own block, whether it stands above or below them.

Assays:
[1] = test system: GlcCer synthase of MDCK cell homogenates; test: Inhibition of ceramide glucosyltransferase (GlcCer synthase) of MDCK cell homogenates; type: biochemical, canine; details: for Inhibition at 5 μM: 5 μM inhibitor; for Inhibition at 5 μM / % Inhibition at 80 μM: triplicate ± SD, samples partly isomer mixtures; for % Inhibition at 80 μM: 80 μM inhibitor
Procedure: Assay of sphingolipid enzymes. The inhibitors were evaluated for their effectiveness against the GlcCer synthase of MDCK cell homogenates by incubation in a thermostatted ultrasonic bath (Radin N. S. et al., “Ultrasonic Baths as Substitutes for Shaking Incubator Baths,” Enzyme, 45:67-70 (1991)) with octanoyl sphingosine and uridinediphospho[^3H]glucose (Shukla, G. S. et al., “Glucosylceramide Synthase of Mouse Kidney: Further Characterization and Improved Assay Method,” Arch. Biochem. Biophys., 283:372-378 (1990)). The lipoidal substrate (85 μg) was added in liposomes made from 0.57 mg dioleoylphosphatidylcholine and 0.1 mg of Na sulfatide. Confluent cells were washed, then homogenized with a micro-tip sonicator at 0° C. for 3×30 sec; ˜0.2 mg of protein was used in each assay tube. In the case of the aromatic inhibitors, the test compound was simply evaporated to dryness from solution in the incubation tube. […] The aliphatic inhibitors, which appeared to be less soluble in water, were added as part of the substrate liposomes.

[2] = test system: 9L brain gliosarcoma cells; test: Tumor cell growth in vitro (sulforhodamine B), 9L; type: cell-based; details: for IC50: 9L, rounded off to one digit, read-out: Inhibition of tumor cell growth in vitro, IC50; for effectiveness on growth and survival of 9L cells, in words: FIG. 1
Procedure: (§1) Growth of cell lines. Comparisons of different inhibitors with regard to suppression of human cancer cell growth were made by the University of Michigan Cancer Center in vitro Drug Evaluation Core Laboratory. MCF-7 breast carcinoma cells, HT-29 colon adenocarcinoma cells, H-460 lung large cell carcinoma cells, and 9L brain gliosarcoma cells were grown in RPMI 1640 medium with 5% fetal bovine serum, 2 mM glutamine, 50 units/ml of penicillin, […] of streptomycin, and 0.1 mg/ml of neomycin. UMSCC-10A head and neck squamous carcinoma cells were grown in minimal essential medium with Earle salts and the same supplements. Medium components were from Sigma Chemical Co. Cells were plated in 96-well microtiter plates (1000 cells/well for H-460 and 9L cells, and 2000 cells/well for the other lines), and the test compounds were added 1 day later. The stock inhibitor solutions, 2 mM in 2 mM BSA, were diluted with different amounts of additional 2 mM BSA, then each solution was diluted 500-fold with growth medium to obtain the final concentrations indicated in the Figures and Tables.
(§2) Five days after plating the H-460 and 9L cells, or 6 days for the other lines, cell growth was evaluated by staining the adhering cells with sulforhodamine B and measuring the absorbance at 520 nm (Skehan, P. et al., “New Colorimetric Cytotoxicity Assay for Anticancer-Drug Screening,” J. Natl. Cancer Inst., 82:1107-1112 (1990)). The absorbance of the treated cultures is reported as percent of that of control cultures, to provide an estimate of the fraction of the cells that survived, or of inhibition of growth rate.

Acid SMase = test: Acid sphingomyelinase of MDCK cells; type: biochemical, canine
Procedure: Acid and neutral SMase assays were based on the procedures of Gatt et al. (Gatt, S. et al., “Assay of Enzymes of Lipid Metabolism With Colored and Fluorescent Derivatives of Natural Lipids,” Meth. Enzymol., 72:351-375 (1981)), using liposomes containing NBD-SM dispersed like the labeled ceramide (10 μM substrate and 30 μM lecithin). The assay medium for the neutral enzyme also contained 50 mM Tris-Cl^− (pH 7.4), 25 mM KCl, 5 mM MgCl2 and 0.29 mg of MDCK cell protein in a total volume of 0.25 ml. Incubation was at 37° C. for 30 min in the ultrasonic bath, then the fluorescent product, NBD-ceramide, was isolated by partitioning the assay mixture with 0.45 ml 2-propanol, 1.5 ml heptane, and 0.2 ml water. After centrifugation, a trace of contaminating NBD-SM was removed from 0.9 ml of the upper layer by washing with 0.35 ml water. The upper layer was analyzed with a fluorometer (460 nm excitation, 515 nm emission).
[…] The resultant ceramide was determined as above.

MDCK cells [3] = test: Lipid changes in MDCK cells (GlcCer, ceramide, diacylglycerol); type: cell-based, canine
neutral ceramidase = test: Neutral ceramidase of MDCK cell homogenate; type: biochemical, canine
Procedure: (§3) Acid and neutral ceramidases were assayed under conditions like those above, but the medium contained 110 μM [1-^14C]decanoyl sphingosine (10^5 cpm) in 340 μM dioleoylphosphatidylcholine liposomes and 0.34 mg of MDCK cellular protein homogenate. […] After 60 min in the ultrasonic bath, 3 ml of C-M 2:1, carrier decanoic acid, and 0.6 ml of 0.9% saline were added and the lipids in the lower layer were separated by TLC with C-HOAc 9:1. The liberated decanoic acid was scraped off the glass plate and counted.

Ceramide synthase = Ceramide synthase of MDCK homogenate; type: biochemical, canine
Procedure: Ceramide synthase was assayed with 1 μM [3-^3H]sphingosine (70,000 cpm, repurified by column chromatography), 0.2 mM stearoyl-CoA, 0.5 mM dithiothreitol, and ˜300 μg of MDCK homogenate protein in 25 mM phosphate-K^+ buffer, pH 7.4, in a total volume of 0.2 ml. The incubation (for 30 min) and TLC were carried out as above and the ceramide band was counted.

[4] = test system: Neutral sphingomyelinase (SMase); test: Neutral sphingomyelinase of MDCK cells; type: biochemical, canine
Procedure: Acid and neutral SMase assays were based on the procedures of Gatt et al. (Gatt, S. et al., “Assay of Enzymes of Lipid Metabolism With Colored and Fluorescent Derivatives of Natural Lipids,” Meth. Enzymol., 72:351-375 (1981)), using liposomes containing NBD-SM dispersed like the labeled ceramide (10 μM substrate and 30 μM lecithin). […] Incubation was at 37° C. for 30 min in the ultrasonic bath, then the fluorescent product, NBD-ceramide, was isolated by partitioning the assay mixture with 0.45 ml 2-propanol, 1.5 ml heptane, and 0.2 ml water. After centrifugation, a trace of contaminating NBD-SM was removed from 0.9 ml of the upper layer by washing with 0.35 ml water. The upper layer was analyzed with a fluorometer (460 nm excitation, 515 nm emission).

acid ceramidase = test: Acid ceramidase of MDCK cell homogenate; type: biochemical, canine
Procedure: as §3

MDCK cells [5] = test: MDCK cell growth (cellular protein per dish); type: cell-based, canine
Procedure: For the experiments with labeled thymidine, each 8.5 cm dish contained 500,000 Madin-Darby canine kidney (MDCK) cells in 8 ml of Dulbecco modified essential supplemented medium. […] The control cells were also incubated in the presence of BSA. The cells were washed with phosphate/saline and trichloroacetic acid, then scraped off the dishes, dissolved in alkali, and analyzed for protein and DNA incorporated tritium. [Methyl-^3H]thymidine (10 μCi) was added 4 h prior to harvesting.

[6] = test system: MCF-7 breast carcinoma cells; test: Tumor cell growth in vitro (sulforhodamine B), MCF-7; type: cell-based, human; details: rounded off to one digit, read-out: Inhibition of tumor cell growth in vitro, IC50
Procedure: as §1, §2

[7] = test system: H-460 lung large cell carcinoma cells; test: Tumor cell growth in vitro (sulforhodamine B), H-460; type: cell-based, human; details: rounded off to one digit, read-out: Inhibition of tumor cell growth in vitro, IC50
Procedure: as §1, §2

- IC50 [2]: 2000 nM
SMILES: CCCCCCCCCCCCCCCC(=O)NC(CN1CCCC1)C(O)c1ccc(OC)cc1 (mixture of isomers) [BML-126]
- Inhibition at 5 μM [1]: 54 ± 0.3^f %
- % Inhibition at 80 μM [1]: 60 ± 1.8^e %

- Ceramide Synthase, enzyme activity (% of control) (Ceramide synthase; 5 μM): 90 ± 8 % of control
- Ceramide Synthase, enzyme activity (% of control) (Ceramide synthase; 50 μM): 71 ± 18^a % of control
SMILES: CCCCCCCCCCCCCC=CC(O)C(CN1CCCC1)NC(=O)CCCCCCCCCCCCCCC [IV-231B, D-threo-1-pyrrolidino-1-deoxyceramide]
- Sphingomyelinase pH 4.5, enzyme activity (% of control) (Acid SMase; 5 μM): 101 ± 7 % of control
- Sphingomyelinase pH 4.5, enzyme activity (% of control) (Acid SMase; 50 μM): 112 ± 11 % of control
- GlcCer in cells (TLC) (MDCK cells [3]; 1 μM for 3 days): virtually no GlcCer was visible
- GlcCer in cells (TLC) (MDCK cells [3]; 0.02 to 1 μM for 3 days): great depletion of GlcCer
- ceramide accumulation (TLC) (MDCK cells [3]; 0.02 to 1 μM for 3 days): no ceramide accumulation
- all the GSLs in cells (TLC) (MDCK cells [3]; 5 days in 5 μM inhibitor): virtually undetectable
- ceramide concentration (MDCK cells [3]; depleted cells, 5 days in 5 μM inhibitor): 13.9±0.2 μg/mg protein
- Ceramidase pH 7.4, enzyme activity (% of control) (neutral ceramidase; 5 μM): 116 ± 20 % of control
- Ceramidase pH 7.4, enzyme activity (% of control) (neutral ceramidase; 50 μM): 112 ± 3 % of control
- degree of inhibition of GlcCer synthase ([1]; 3 μM, inhibitor incorporated into the substrate liposomes): 77±0.9%
- Inhibition at 5 μM [1]: 87 ± 0.4^g %
- Sphingomyelinase pH 7.1, enzyme activity (% of control) ([4]; 5 μM): 131 ± 3^b % of control
- Sphingomyelinase pH 7.1, enzyme activity (% of control) ([4]; 50 μM): 120 ± 3^b % of control
- Ceramidase pH 4.5, enzyme activity (% of control) (acid ceramidase; 5 μM): 106 ± 3 % of control
- Ceramidase pH 4.5, enzyme activity (% of control) (acid ceramidase; 50 μM): 113 ± 8 % of control
- effect on MDCK cell growth (MDCK cells [5]; 20 μM for 1 day or 1 μM for 3 days): no inhibitory effect
- effect on MDCK cell growth (MDCK cells [5]; 5 days in 5 μM inhibitor): no slowing of growth
- protein per dish (MDCK cells [5]; 5 days in 5 μM inhibitor, BSA complex): 3.30 ± 0.04 mg

SMILES: CCCCCCCCCCCCCC(=O)N[C@@H](C)[C@H](O)c1ccccc1 [D-erythro-N-myristoyl-2-amino-1-phenyl-1-propanol, reference compound]
- inhibition of GlcCer synthase by nonionic ceramide-like compounds ([1]; 20 μM): did not inhibit

- Ceramide Synthase, enzyme activity (% of control) (Ceramide synthase; 5 μM): 99 ± 5 % of control
- Ceramide Synthase, enzyme activity (% of control) (Ceramide synthase; 50 μM): 66 ± 9^a % of control
SMILES: CCCCCCCCCC(=O)N[C@H](CN1CCOCC1)[C@H](O)c1ccccc1 [PDMP, 1R-phenyl-2R-decanoylamino-3-morpholino-1-propanol, reference compound]
- Sphingomyelinase pH 4.5, enzyme activity (% of control) (Acid SMase; 5 μM): 102 ± 3 % of control
- Sphingomyelinase pH 4.5, enzyme activity (% of control) (Acid SMase; 50 μM): 100 ± 3 % of control
- Ceramidase pH 7.4, enzyme activity (% of control) (neutral ceramidase; 5 μM): 116 ± 19 % of control
- Ceramidase pH 7.4, enzyme activity (% of control) (neutral ceramidase; 50 μM): 105 ± 11 % of control
- Inhibition at 5 μM [1]: 16 ± 1.8^f %
- % Inhibition at 80 μM [1]: 90 ± 0.8^a %
- effectiveness on growth and survival of 9L cells, in words [2]: even weaker effectiveness
- Sphingomyelinase pH 7.1, enzyme activity (% of control) ([4]; 5 μM): 121 ± 13 % of control
- Sphingomyelinase pH 7.1, enzyme activity (% of control) ([4]; 50 μM): 108 ± 8 % of control
- Ceramidase pH 4.5, enzyme activity (% of control) (acid ceramidase; 5 μM): 97 ± 4 % of control
- Ceramidase pH 4.5, enzyme activity (% of control) (acid ceramidase; 50 μM): 133 ± 13^a % of control

SMILES: CCCCCCCCCC(=O)NC(CN1CCOCC1)C(O)c1ccc(F)cc1 (mixture of isomers) [BML-117]
- % Inhibition at 80 μM [1]: 35 ± 0.6^b %

- IC50 [2]: 2000 nM
- IC50 [6]: 2000 nM
- IC50 [7]: 2000 nM
SMILES: CCCCCCCCCCCCCCCC(=O)NC(CN1CCCCC1)C(O)c1ccc(F)cc1 (mixture of isomers) [BML-118]
- Inhibition at 5 μM [1]: 8.3 ± 1.4^f %
- % Inhibition at 80 μM [1]: 62 ± 0.4^b %

SMILES: CCCCCCCCCCCCC/C=C/[C@H](O)[C@@H](CN1CCCC1)NC(=O)CCCCCCCCCCCCCCC [IV-230A]
- Inhibition at 5 μM [1]: 19 ± 2.1^g %

SMILES: CCCCCCCCCCCCC/C=C/[C@H](O)[C@@H](CN1CCOCC1)NC(=O)CCCCCCCCCCCCCCC [IV-181A]
- Inhibition at 5 μM [1]: 12 ± 0.2^g %

SMILES: CCCCCCCCCCCCCCCC(=O)NC(CN(C)CCO)C(O)c1ccccc1 (mixture of isomers) [BML-122]
- % Inhibition at 80 μM [1]: 58 ± 1.6^d %

SMILES: CCCCCCCCCCCCCCCC(=O)NC(CN1CCOCC1)C(O)c1ccccc1 (stereo not drawn) [PPMP, reference compound]
- Inhibition at 5 μM ([1]; 5 µM): 32 ± 1.8^e % and 32 ± 0.7^f %
- effectiveness on growth and survival of 9L cells, in words [2]: relatively weak effectiveness
